Results taken from EP4818168A1, “FUSED RING COMPOUND, PHARMACEUTICAL COMPOSITION THEREOF AND USE THEREOF” (priority 2023, dated 2025).
Like-named read-outs stand apart in the source and are kept apart here.

Key:
HCC1806 cells = test: CTG assay of compound inhibition on cell viability (HCC1806 cells); format: cell-based; conditions: Homo sapiens, HCC1806, 144 h, read-out: IC50 in HCC1806 Cells
Summary of the method: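 HCC1806 cells in RPMI1640 + 10% FBS were exposed to serially diluted compound (0.1% DMSO final) for 6 days at 37°C, 5% CO2. Viability was read as CellTiter-Glo luminescence (ATP) and normalised to DMSO and medium controls. IC50 came from a nonlinear-regression dose-survival curve.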

AURKA = biological target: T1, AURKA (Homo sapiens, UniProt O14965); format: cell-based
T1 construct: endogenous in cells; host or cells: Jurkat cells
T1 sequence (O14965 1-403): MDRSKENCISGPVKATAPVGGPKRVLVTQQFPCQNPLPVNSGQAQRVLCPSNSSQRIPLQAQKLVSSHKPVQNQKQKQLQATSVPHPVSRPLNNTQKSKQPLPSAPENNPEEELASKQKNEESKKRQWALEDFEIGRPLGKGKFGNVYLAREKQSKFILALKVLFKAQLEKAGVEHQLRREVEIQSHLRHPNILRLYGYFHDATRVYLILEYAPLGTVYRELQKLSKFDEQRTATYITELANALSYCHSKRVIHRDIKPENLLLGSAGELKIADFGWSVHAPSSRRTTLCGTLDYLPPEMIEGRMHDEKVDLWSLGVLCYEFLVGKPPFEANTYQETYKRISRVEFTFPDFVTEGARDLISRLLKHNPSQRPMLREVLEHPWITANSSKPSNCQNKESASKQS
Summary of the method: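 Jurkat cells seeded at 1×10^6 cells/500 µL and treated with compound; lysates run on SDS-PAGE, blotted to nitrocellulose and probed overnight at 4°C for AURKA. Chemiluminescent or fluorescent band intensity fitted to a curve to give DC50 for protein degradation.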

H82 cells = test: cells; format: cell-based; conditions: Homo sapiens
Summary of the method: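 H82 cells in RPMI1640 + 10% FBS exposed to compound (0.1% DMSO final) for 6 days at 37 °C, 5% CO2. Viability read by CellTiter-Glo ATP luminescence, normalised to DMSO and medium controls; IC50 from nonlinear regression of the dose–survival curve.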

Mouse PK study = format: in vivo; conditions: male CD1 mice; for C0/Cmax / half-life / AUC(0-t) at 24 h / clearance / Vd / Tmax: plasma; for half-life / AUC(0-t) at 24 h / clearance / Vd / Tmax: mouse; for AUC(0-t) at 24 h: read-out: AUC0-24; for clearance: read-out: CLp; for Vd: read-out: Vss
Experimental: Male CD1 mice (5-8 weeks old) were administered intravenously (IV) at a dose of 1 mg/kg by tail vein bolus or orally (PO) at doses of 10 mg/kg and 40 mg/kg by gavage. The compound was formulated in a vehicle of 10% DMSO + 10% Solutol HS15 + 80% saline. All animals were given free access to food and water during the experiment. […] Blood samples were centrifuged at 3500 g for 5 min, and the resulting plasma was analyzed by an LC-MS/MS method. The PK parameters were calculated using WinNonlin software (Phoenix®, version 8.3) through non-compartmental analysis methods.

[1] = 100 nM compound, Jurkat cells, 24 h, Table 1
[2] = 1 µM compound, Jurkat cells, 24 h, Table 1
[3] = 100 nM compound, Jurkat cells, 24 h, Table 2
[4] = 1 µM compound, Jurkat cells, 24 h, Table 2

O=C1CCC(N2CCN(C3CN(CCNC(=O)c4ccc(Nc5ncc6c(n5)-c5ccc(Cl)cc5C(c5c(F)cccc5F)=NC6)cc4)C3)CC2=O)C(=O)N1 (stereo not drawn) [Compound A75]
IC50 (HCC1806 cells): 1000 to 10000 nM
Percentage of AURKA Degradation Induced by 100 nM Compound in Jurkat Cells (AURKA): ++ (key: +: Degradation ≤ 30%; ++: 30% < Degradation ≤ 70%; +++: Degradation > 70%)
Percentage of AURKA Degradation Induced by 1 µM Compound in Jurkat Cells (AURKA): ++ (key: +: Degradation ≤ 30%; ++: 30% < Degradation ≤ 70%; +++: Degradation > 70%)

COc1cccc(F)c1C1=NCc2cnc(Nc3ccc(C(=O)NC45CC(C#Cc6cccc(N7CCC(=O)NC7=O)c6)(C4)C5)cc3)nc2-c2ccc(Cl)cc21 [Compound A77]
IC50 (HCC1806 cells): 1000 to 10000 nM
Percentage of AURKA Degradation Induced by 100 nM Compound in Jurkat Cells (AURKA): ++ (key: +: Degradation ≤ 30%; ++: 30% < Degradation ≤ 70%; +++: Degradation > 70%)
Percentage of AURKA Degradation Induced by 1 µM Compound in Jurkat Cells (AURKA): ++ (key: +: Degradation ≤ 30%; ++: 30% < Degradation ≤ 70%; +++: Degradation > 70%)

COc1cc(Nc2ncc3c(n2)-c2ccc(Cl)cc2C(c2c(F)cccc2OC)=NC3)ccc1C(=O)NC1CC2(CCN(c3ncc(N4CCC(=O)NC4=O)s3)CC2)C1 [Compound A80]
IC50 (HCC1806 cells): < 1000 nM
Percentage of AURKA Degradation Induced by 100 nM Compound in Jurkat Cells (AURKA; [1]): ++ (30% < Degradation ≤ 70%)
Percentage of AURKA Degradation Induced by 1 µM Compound in Jurkat Cells (AURKA; [2]): +++ (Degradation > 70%)

O=C1CCN(c2cnc(N3CCC4(CC3)CC(NC(=O)c3ccc(Nc5ncc6c(n5)-c5ccc(Cl)cc5C(c5c(F)cccc5F)=NC6)cc3)C4)s2)C(=O)N1 [Compound A81]
IC50 (HCC1806 cells): < 1000 nM
Percentage of AURKA Degradation Induced by 100 nM Compound in Jurkat Cells (AURKA; [1]): +++ (Degradation > 70%)
Percentage of AURKA Degradation Induced by 1 µM Compound in Jurkat Cells (AURKA; [2]): +++ (Degradation > 70%)

O=C1CCN(c2ccc(N3CCO[C@H](C(=O)N4CCN(c5ccc(Nc6ncc7c(n6)-c6ccc(Cl)cc6C(c6c(F)cccc6F)=NC7)cc5)CC4)C3)nc2)C(=O)N1 [Compound A307]
IC50 (H82 cells; NCI-H82, H82 cells, 4000 cells/well, CellTiter-Glo, read-out: IC50 in H82 Cells): < 1000 nM
Percentage of AURKA Degradation Induced by 100 nM Compound in Jurkat Cells (AURKA; [3]): +++ (Degradation > 70%)
Percentage of AURKA Degradation Induced by 1 µM Compound in Jurkat Cells (AURKA; [4]): +++ (Degradation > 70%)
C0/Cmax (Mouse PK study; IV 1 mg/kg): 1527 ng/mL
F (Mouse PK study; PO 10 mg/kg): 79.7%
C0/Cmax (Mouse PK study; PO 10 mg/kg): 2460 ng/mL
F (Mouse PK study; PO 40 mg/kg): 80.6%
C0/Cmax (Mouse PK study; PO 40 mg/kg): 7283 ng/mL
half-life (Mouse PK study; IV 1 mg/kg): 2.28 h
AUC(0-t) at 24 h (Mouse PK study; IV 1 mg/kg): 2450 ng·h/mL
clearance (Mouse PK study; IV 1 mg/kg): 6.33 mL/min/kg
Vd (Mouse PK study; IV 1 mg/kg): 1.04 L/kg
Tmax (Mouse PK study; PO 10 mg/kg): 2 h
half-life (Mouse PK study; PO 10 mg/kg): 2.41 h
AUC(0-t) at 24 h (Mouse PK study; PO 10 mg/kg): 19500 ng·h/mL
Tmax (Mouse PK study; PO 40 mg/kg): 3.33 h
half-life (Mouse PK study; PO 40 mg/kg): 2.37 h
AUC(0-t) at 24 h (Mouse PK study; PO 40 mg/kg): 78900 ng·h/mL

O=C1CCN(c2ccc(N3CCC4(CC3)CC(N3CCN(C56CC(Nc7ncc8c(n7)-c7ccc(Cl)cc7C(c7c(F)cccc7F)=NC8)(C5)C6)C(=O)C3)CO4)nc2)C(=O)N1 (stereo not drawn) [Compound A321]
IC50 (H82 cells; NCI-H82, read-out: IC50 in H82 Cells): < 1000 nM
Percentage of AURKA Degradation Induced by 100 nM Compound in Jurkat Cells (AURKA; [3]): +++ (Degradation > 70%)
Percentage of AURKA Degradation Induced by 1 µM Compound in Jurkat Cells (AURKA; [4]): +++ (Degradation > 70%)
C0/Cmax (Mouse PK study; IV 1 mg/kg): 1307 ng/mL
F (Mouse PK study; PO 10 mg/kg): 157%
C0/Cmax (Mouse PK study; PO 10 mg/kg): 4007 ng/mL
F (Mouse PK study; PO 40 mg/kg): 130%
C0/Cmax (Mouse PK study; PO 40 mg/kg): 13233 ng/mL
half-life (Mouse PK study; IV 1 mg/kg): 1.89 h
AUC(0-t) at 24 h (Mouse PK study; IV 1 mg/kg): 2630 ng·h/mL
clearance (Mouse PK study; IV 1 mg/kg): 6.16 mL/min/kg
Vd (Mouse PK study; IV 1 mg/kg): 0.97 L/kg
Tmax (Mouse PK study; PO 10 mg/kg): 3.33 h
half-life (Mouse PK study; PO 10 mg/kg): 2.13 h
AUC(0-t) at 24 h (Mouse PK study; PO 10 mg/kg): 41400 ng·h/mL
Tmax (Mouse PK study; PO 40 mg/kg): 3.33 h
half-life (Mouse PK study; PO 40 mg/kg): 1.97 h
AUC(0-t) at 24 h (Mouse PK study; PO 40 mg/kg): 137000 ng·h/mL

COc1cc(Nc2ncc3c(n2)-c2ccc(Cl)cc2C(c2c(F)cccc2OC)=NC3)ccc1C(=O)O [alisertib, reference compound]
IC50 (HCC1806 cells): < 1000 nM
Percentage of AURKA Degradation Induced by 100 nM Compound in Jurkat Cells (AURKA; [1]): + (Degradation ≤ 30%)
Percentage of AURKA Degradation Induced by 1 µM Compound in Jurkat Cells (AURKA; [2]): + (Degradation ≤ 30%)
